The values below come from ChEMBL document CHEMBL5523748, “Targeting Myeloperoxidase Ameliorates Gouty Arthritis: A Virtual Screening Success Story” (J Med Chem, 2024).

Active and inactive are the calls of the source. No cut-off for these calls is given here.

In series [1] the target is T1, Myeloperoxidase (Homo sapiens) (UniProt P05164).
T1 sequence (whole entry): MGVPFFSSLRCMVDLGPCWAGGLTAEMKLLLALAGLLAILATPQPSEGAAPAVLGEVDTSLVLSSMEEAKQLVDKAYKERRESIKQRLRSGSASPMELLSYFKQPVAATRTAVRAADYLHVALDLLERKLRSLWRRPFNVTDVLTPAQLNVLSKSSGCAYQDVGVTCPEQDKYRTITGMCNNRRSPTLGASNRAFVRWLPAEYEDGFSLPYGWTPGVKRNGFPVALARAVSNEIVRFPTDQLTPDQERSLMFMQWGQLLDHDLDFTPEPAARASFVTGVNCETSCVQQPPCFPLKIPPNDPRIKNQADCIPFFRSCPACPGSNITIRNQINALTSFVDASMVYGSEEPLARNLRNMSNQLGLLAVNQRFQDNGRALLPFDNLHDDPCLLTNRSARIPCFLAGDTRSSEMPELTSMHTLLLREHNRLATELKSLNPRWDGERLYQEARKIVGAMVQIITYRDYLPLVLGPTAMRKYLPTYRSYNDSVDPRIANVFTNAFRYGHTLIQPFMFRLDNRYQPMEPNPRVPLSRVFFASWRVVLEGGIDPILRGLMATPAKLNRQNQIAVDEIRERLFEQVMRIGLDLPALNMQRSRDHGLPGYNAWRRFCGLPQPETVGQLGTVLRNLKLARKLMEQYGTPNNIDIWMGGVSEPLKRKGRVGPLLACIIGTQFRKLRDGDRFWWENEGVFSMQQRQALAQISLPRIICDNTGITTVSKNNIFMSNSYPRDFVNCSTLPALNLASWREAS
In words: Inhibition of human leukocyte MPO peroxidase activity using hydrogen peroxide as substrate by fluorescence based analysis.

A short description of series [2]: Antioxidant activity assessed as taurine chloramine scavenging activity incubated for 15 mins. The series is classed as functional.
In a further series the test system is dHL-60. In words: Inhibition of HOCl production in human dHL-60 cells at 20 uM incubated for 1 hrs in presence of PMA. The series is classed as functional, cell-based.
Series [3] has as its system Neutrophil. In words: Inhibition of HOCl production in human neutrophil at 20 uM incubated for 1 hrs in presence of PMA. The series is classed as functional, cell-based.
The test system of series [4] is Neutrophil. In words: Inhibition of MSU-induced NETosis in human neutrophil assessed as reduction in release of large DNA scaffolds at 20 uM incubated for 90 mins by sytox green staining based fluorescence microscopic analysis. The series is classed as functional, cell-based.
For series [5], the system named is Neutrophil. In words: Inhibition of MSU-induced NETosis in human neutrophil assessed as reduction in nuclear expansion at 20 uM incubated for 90 mins by sytox green staining based fluorescence microscopic analysis. The series is classed as functional, cell-based.
Series [6] deals with TERT-RPE1. Put plainly: Cytotoxicity against human hTERT-RPE1 cells assessed as reduction in cell viability at 50 uM measured after 72 hrs by XTT assay. The settings on record: tert-rpe1, 72 h. The series is classed as toxicity, cell-based. In general terms: Formazan colour is commonly taken as a measure of viable cells.
Series [7] concerns Mus musculus. Put plainly: Anti-inflammatory activity against MSU-induced gouty arthritis in male C57BL/6 mouse model assessed as prevention of paw edema at 3 to 30 mg/kg, ip preadministered with compound for 30 mins followed by MSU administration and measured for 1 to 4 hrs by plethysmometer. The series is classed as functional, organism-based. The settings on record: dose 3-30 mg/kg, time lower 1.5 hrs, time upper […].

The test system of series [8] is Mus musculus. In words: Anti-inflammatory activity against MSU-induced gouty arthritis in male C57BL/6 mouse model assessed as prevention of paw edema at 0.3 mg/kg, ip preadministered with compound for 30 mins followed by MSU administration and measured for 4 hrs by plethysmometer. The series is classed as functional, organism-based.
Series [9] relates to Mus musculus. Put plainly: Downregulation of IL-6 level in MSU-induced gouty arthritic male C57BL/6 mouse model at 30 mg/kg, ip preadministered with compound for 30 mins followed by MSU addition and measured after 6 hrs by ELISA. The series is classed as functional, organism-based. The settings on record: time 6.5 hrs. For orientation: In an ELISA, binding on a coated surface is turned into a signal by an enzyme label.

For series [10], the system named is Mus musculus. In words: Downregulation of IL-1beta level in MSU-induced gouty arthritic male C57BL/6 mouse model at 30 mg/kg, ip preadministered with compound for 30 mins followed by MSU addition and measured after 6 hrs by ELISA. The series is classed as functional, organism-based. The settings on record: time 6.5 hrs.
In series [11] the test system is Mus musculus. In words: Reduction in total peroxidase activity in MSU-induced gouty arthritic male C57BL/6 mouse model at 30 mg/kg, ip preadministered with compound for 30 mins followed by MSU addition and measured after 6 hrs. The series is classed as functional, organism-based. The settings on record: time 6.5 hrs.
Series [12] can be described thus: Reactivity of the compound in phosphate buffer at pH 7.4 assessed as compound oxidation by measuring decrease in fluorescence spectra in presence of MPO by fluorescence microplate reader. The series is classed as physicochemical.
Series [13] in a line: Reactivity of the compound in phosphate buffer at pH 7.4 assessed as compound oxidation by measuring decrease in fluorescence spectra in presence of H2O2 by fluorescence microplate reader. The series is classed as physicochemical.
Series [14] in a line: Reactivity of the compound in phosphate buffer at pH 7.4 assessed as compound oxidation by measuring decrease in fluorescence spectra in presence of MPO and chloride by fluorescence microplate reader. The series is classed as physicochemical.
Series [15] is described as follows: Reactivity of the compound in phosphate buffer at pH 7.4 assessed as compound oxidation by measuring decrease in fluorescence spectra in presence of H2O2 and chloride by fluorescence microplate reader. The series is classed as physicochemical.
Series [16] is described as follows: Reactivity with Hypochlorous acid (HOCl) in phosphate buffer at pH 7.4 assessed as fluorescence decay at 20 uM measured within 1 sec by stopped-flow spectrophotometric analysis. The series is classed as physicochemical. The settings on record: pH 7.4, 1 s.
Series [17] concerns the target T1, Myeloperoxidase (Homo sapiens). Put plainly: Inhibition of human leukocyte MPO chlorinating activity using hydrogen peroxide as substrate at 20 uM preincubated for 15 mins followed by substrate addition and measured after 8 mins relative to control. The settings on record: time 23.0 min.
Series [18] concerns Mus musculus. In words: Anti-inflammatory activity against MSU-induced gouty arthritis in male C57BL/6 mouse model assessed as prevention of paw edema at 30 mg/kg, ip preadministered with compound for 30 mins followed by MSU administration and measured upto 4 hrs by plethysmometer. The series is classed as functional, organism-based.
The target of series [19] is T1, Myeloperoxidase (Homo sapiens). In words: Reversible inhibition of human leukocyte MPO using hydrogen peroxide as substrate assessed as restoration of MPO peroxidase activity at 20 uM incubated for 30 mins and measured after dilution using acetate buffer in presence of TMB.
In series [20] the target is Poly [ADP-ribose] polymerase 1 (Homo sapiens) (UniProt P09874). Put plainly: Inhibition of PARP1-induced ADP-ribosylation in human hTERT-RPE1 cells at 1 to 50 uM preincubated with compound for 1 hrs followed by H2O2 addition and measured after 10 mins. The series is classed as cell-based. The settings on record: dose 1-50 µM, time 70.0 min.
Series [21] concerns TERT-RPE1. In words: Cytotoxicity against human hTERT-RPE1 cells assessed as reduction in cell viability at 2 to 50 uM measured after 72 hrs by XTT assay. The series is classed as toxicity, cell-based. The settings on record: tert-rpe1, 72 h, dose 2-50 µM.
Series [22] relates to Mus musculus. In words: Anti-inflammatory activity against MSU-induced gouty arthritis in male C57BL/6 mouse model assessed as prevention of paw edema at 3 to 30 mg/kg, ip preadministered with compound for 30 mins followed by MSU administration and measured for 6 hrs by plethysmometer. The series is classed as functional, organism-based. The settings on record: dose 3-30 mg/kg, time 6.5 hrs.

The nature of series [23]: Reactivity of the compound in phosphate buffer at pH 7.4 assessed as compound oxidation by measuring decrease in fluorescence spectra in presence of MPO, H2O2 and tyrosine by fluorescence microplate reader. The series is classed as physicochemical.
Series [24] relates to Mus musculus. Put plainly: Anti-inflammatory activity against MSU-induced gouty arthritis in male C57BL/6 mouse model assessed as prevention of paw edema at 3 to 30 mg/kg, ip preadministered with compound for 30 mins followed by MSU administration and measured upto 4 hrs by plethysmometer. The settings on record: dose 3-30 mg/kg. The series is classed as functional, organism-based.

The test system of series [25] is Mus musculus. Put plainly: Anti-inflammatory activity against MSU-induced gouty arthritis in male C57BL/6 mouse model assessed as inhibition of paw edema at 34 mg/kg, po preadministered with compound for 1 hrs followed by MSU administration and measured for 6 hrs by plethysmometer. The series is classed as functional, organism-based. The settings on record: time 7.0 hrs.

Poly [ADP-ribose] polymerase 1 (Homo sapiens), sequence (P09874 whole entry): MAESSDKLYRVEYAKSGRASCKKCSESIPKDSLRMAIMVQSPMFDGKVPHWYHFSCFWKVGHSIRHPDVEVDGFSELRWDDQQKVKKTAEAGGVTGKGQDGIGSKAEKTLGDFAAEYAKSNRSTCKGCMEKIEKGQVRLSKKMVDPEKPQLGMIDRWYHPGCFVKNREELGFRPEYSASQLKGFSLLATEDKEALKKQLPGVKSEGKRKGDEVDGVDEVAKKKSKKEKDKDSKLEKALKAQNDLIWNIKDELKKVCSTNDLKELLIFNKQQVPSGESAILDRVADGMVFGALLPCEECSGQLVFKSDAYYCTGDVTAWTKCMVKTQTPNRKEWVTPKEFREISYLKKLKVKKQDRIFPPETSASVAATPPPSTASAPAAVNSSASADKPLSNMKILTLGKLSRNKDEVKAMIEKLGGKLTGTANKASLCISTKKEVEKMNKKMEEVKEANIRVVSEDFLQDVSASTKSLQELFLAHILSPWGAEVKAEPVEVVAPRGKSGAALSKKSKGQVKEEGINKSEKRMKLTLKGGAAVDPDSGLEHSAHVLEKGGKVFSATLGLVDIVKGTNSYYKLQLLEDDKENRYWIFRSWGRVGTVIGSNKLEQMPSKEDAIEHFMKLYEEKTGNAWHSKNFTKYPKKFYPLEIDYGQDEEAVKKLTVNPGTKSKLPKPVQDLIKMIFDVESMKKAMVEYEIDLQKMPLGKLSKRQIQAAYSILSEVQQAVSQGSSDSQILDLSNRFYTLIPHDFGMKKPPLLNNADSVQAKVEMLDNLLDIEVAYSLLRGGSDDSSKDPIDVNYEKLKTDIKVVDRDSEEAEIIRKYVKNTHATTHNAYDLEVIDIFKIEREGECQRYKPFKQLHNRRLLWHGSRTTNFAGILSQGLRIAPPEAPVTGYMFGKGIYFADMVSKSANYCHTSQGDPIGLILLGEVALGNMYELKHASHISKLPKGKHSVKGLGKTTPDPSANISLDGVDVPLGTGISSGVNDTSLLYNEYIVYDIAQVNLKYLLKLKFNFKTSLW

On to `CN1CCc2nc3sc(C(=O)Nc4cccc(C#N)c4)c(N)c3cc2C1`, for which the inhibition entry in [1] is “inactive”. Further, the result (in [2]; in the series with Mus musculus [9]; in the series on Mus musculus [10]; in the series on Mus musculus [11]) was inactive. The inhibition entry in the series on dHL-60, with Neutrophil [3], in the series on Neutrophil [4] and in the series with Neutrophil [5] was “Active” in each case. In addition, the Activity entry with TERT-RPE1 [6] is listed as “Toxic”. For the same compound, the result with Mus musculus [7] and in the series on Mus musculus [8] was Active. Further, the Drug metabolism entry is listed as “Metabolite_Notdetected” in series [12]; “Metabolite_Notdetected” in [13]; “Metabolite_Detected” in series [14]; “Metabolite_Detected” in series [15]; “Metabolite_Detected” in series [16].
On to `O=c1c2cnc3cc(C(F)(F)F)ccc3c2sc2nncn12`, for which the inhibition result in series [17] and in series [1] was “inactive” in each case.
As for `N#CC1=C(N)Oc2c(c(=O)sc3ccccc23)C1c1ccc(F)cc1` (centres undefined), the inhibition entry in series [17] is “inactive”.
Consider `COc1ccc(C(=O)Nc2ccc(-c3nnc(S)o3)cc2)cc1`, for which the inhibition entry (in series [1]; with dHL-60; in the series with Neutrophil [3]) was “inactive” in each case. For the same compound, the result in series [2] was Active.
Consider `CCCc1cc(=O)[nH]c(=S)[nH]1`, for which the inhibition entry in the series on dHL-60, with Neutrophil [3], in the series with Neutrophil [4] and in the series on Neutrophil [5] was “Active” throughout.
For `CCCOc1ccc(C2C(C#N)=C(N)SC(N)=C2C#N)cc1OC`, the result in series [2] was Active.
Regarding `Cc1cccc(Nc2ccccc2C(=O)O)c1C`, the outcome in the series on Mus musculus [18] was Active. Also, the outcome in the series with Mus musculus [9], in the series on Mus musculus [10] and in the series on Mus musculus [11] was inactive.
`CN(C)CCc1c(C#N)c(=O)ncn1Cc1ccccc1`: the inhibition result in [17] and in series [1] was “inactive” in each case.
On to `COc1cc(/C=N/NC(=O)c2ccoc2C)ccc1OCCN1CCCCC1`, for which, in [17], the inhibition entry was “inactive”.
Regarding `CCCNc1ncnc2cc(-c3ccc(OC)cc3)sc12`, the inhibition entry in [17] and in series [1] was “inactive” each time.
On to `Nc1cc2c3c(cccc3c1)C(=O)N(N)C2=O`, for which the outcome (in series [2]; in the series on Mus musculus [9]) was inactive. Besides, the inhibition entry (in series [19]; in the series on dHL-60; with Neutrophil [3]; with Neutrophil [4]; with Neutrophil [5]) was “Active” in each case. For the same compound, the inhibition entry in [20] was “inactive”. For the same compound, in the series on TERT-RPE1 [21], the Activity entry is “Non-Toxic”. Also, in the series with Mus musculus [22], the result was Active. Besides, the Drug metabolism result in series [12], in series [13], in series [14], in series [15] and in [23] was “Metabolite_Notdetected” each time.
In the case of `CCc1c(O)[nH]c2nc3ccccc3n2c1=O`, in the series with Mus musculus [24], the outcome was Active. Further, the result in the series with Mus musculus [25], in the series on Mus musculus [9], with Mus musculus [10] and in the series with Mus musculus [11] was inactive.
As for `CCOC(=O)C(Cc1ccc(O)cc1)NC1=CC(=O)C(=O)c2ccccc21` (centres undefined), in [17], the inhibition result is “inactive”.
